BindingDB's records for doi:10.1016/j.chembiol.2005.12.008 (Academia Sinica, 2006)

Target: Replicase polyprotein 1ab (Severe acute respiratory syndrome coronavirus, UniProt P0C6X7)
Assay: Inhibition Assay
Conditions: pH 7.5
From the text: Inhibition assay against SARS-CoV 3CL protease, a fluorometric assay was utilized to determine the inhibition constants of the samples.

Question: With `O=C(Cn1nnc2ccccc21)c1ccc([N+](=O)[O-])cc1` [Benzotriazole ester, 13] as the molecule, how does the IC50 read?
Answer: > 50 µM

Question: `Nc1ccc(C(=O)Cn2nnc3ccccc32)cc1` [Benzotriazole ester, 15] was tested. Which IC50 did it give?
Answer: > 50 µM

Question: For `Nc1ccc(C(O)Cn2nnc3ccccc32)cc1` (stereo not given) [Benzotriazole ester, 16], which IC50 is on record?
Answer: > 50 µM

Question: For `CNc1ccc(C(O)Cn2nnc3ccccc32)cc1` (stereo not given) [Benzotriazole ester, 19], which Ki is on record?
Answer: > 50 µM

Question: With `CN(C)c1ccc(C(O)Cn2nnc3ccccc32)cc1` (stereo not given) [Benzotriazole ester, 20] as the molecule, how does the Ki read?
Answer: > 50 µM
